Experimental data reported in US6417399B1, “Amelioration of neurological disorders by the administration of (2R),(3S), and/or (2S),3(S) stereoisomers of valnoctamide” (Yissum Research Development Company of the Hebrew …, priority 1997, dated 2002).
Values joined by “and” are separate entries in the source; they are usually repeats but may differ in a detail not shown here. Equal entries are not always repeated.

Tests used:
Assay type in all cases: in vivo, human
[1] = Pharmacokinetics of VCD stereoisomers in plasma after single oral dose of racemic valnoctamide to healthy subjects
Method: Healthy Subjects Seven healthy male volunteers, aged 20-31 years, weighing 61 to 85 kg, received 2×200 mg valnoctamide tablets (Nirvanil@) at 08:00 hours after an overnight fast. Venous blood samples were taken through an indwelling catheter 0, 0.5, 1, 2, 3, 4, 5, 6, 8, 10, 12 and 24 hours after dosing. Food was witheld for 4 hours after dosing.
(§1) Plasma Handling and Analytical Assays Plasma samples were separated immediately by centrifugation at 2,000 g for 10 minutes and stored at −20° C. until assaying (VCD is stable at −20° C.). The VCD plasma samples were analyzed by a gas chromatograph (HP 5890 series II)-mass spectrometer (HP 5989A)-GC-MS data system equipped with chiral capillary column. The mass spectrometer was operated in E1 mode at 70eV, the source temperature of the MS was maintained at 200° C. and the quadruple at 100° C. Mass units and their relative abundance were calibrated with perfluorotributylamine (PFTBA). Spectra were collected in the range of […], and the chiral analysis started 18 minutes after injection. Gas chromatograph (GC) oven temperature programming conditions were as follows: 50° C. for 1 minute, then increasing at a rate of 8° C./minute until 100° C., holding for a minute then 4° C./minute until reaching a final temperature of 250° C. The injector temperature is 240° C. and the GC-MS transfer line temperature is 250° C. Inlet pressure is 5 psi with a linear flow rate 20 cm/second. Helium was used as the carrier gas. Chromatographic resolution of the VCD stereoisomers was accomplished by a direct separation on a chiral stationary phase (CSP) column. The CSP consisted of a Chirasil-γ-Dex (octakis (3-O-butanoyl-2,6-di-o-pentyl)-γ-cyclodextrin chemically linked via a 6-mono-octamethylene spacer to a dimethylpolysiloxane. The 0.25 μm Chirasil-γ-Dex was coated on a 25 m×250 μm (id) fused silica capillary column. This CSP of a cyclodextin derivative allows complete baseline resolution of the four stereoisomers (α=1.04, Rs=2.0-2.4) in 24 minutes as depicted in FIG. 2. Intra and inter-day variability in the retention times of the four VCD stereoisomers was less than 10%. A calibration curve was established by spiking drug-free plasma samples with known amounts of racemic VCD at a concentration range of 0.2 mg/L to 8 mg/L (or 0.05 mg/L to 2 mg/L of each of the four VCD stereoisomers).
(§2) Pharmacokinetic and Statistical Analysis Pharmacokinetic parameters were calculated by noncompartmental analysis according to statistical moment theory. Peak plasma concentrations (Cmax) and peak times (tmax) were derived directly from the measured values. The linear terminal slopes (λ) of the log-concentration of each VCD stereoisomer versus time curves were calculated by the peeling procedure. Half life (t½) values were calculated as 0.693/λ. Areas under the plasma concentration versus time curve (AUC), after single dosing, were calculated by the trapezoidal rule with extrapolation to infinity by dividing the last measured concentration by the terminal slope. During repeated administration AUC was calculated over the last two dosing intervals by using the trapezoidal rule. Mean residence time (MRT) was calculated after single dosing as AUMC/AUC, in which AUMC is the area under the concentration×time product versus time curve from zero to infinity. Following single dosing, oral clearance (CL/F, in which F is the oral availability) and apparent volume of distribution at steady state (Vss/F) were calculated as Dose/AUC and as MRT×CL/F, respectively. Following repeated dosing, CL/F was calculated from the quotient of the dose (200 mg) and the AUC obtained during one dosing interval (defined as one-half of the AUC calculated over two consecutive dosing intervals). Comparison of the pharmacokinetic parameters of all four VCD stereoisomers was made by ANOVA.

[2] = Pharmacokinetics of VCD stereoisomers in plasma after single oral dose of racemic valnoctamide to epileptic patients; settings: for CL/F / Cmax / MRT / tmax / t½: single oral 400 mg racemic VCD; for half lives: epileptic patients
Method: (§3) Patients Six epileptic patients (four men and two women aged 23-35 years, with a body weight of 56-85 kg) were studied. All had been receiving a constant carbamazepine dose (800-1200 mg/day) for at least three months. One patient was also receiving phenytoin (250 mg/day) and a second patient phenobarbital (150 mg/day). Each patient received add-on VCD for eight consecutive days at a dosage of 400 mg on day 1 (single dose day), followed by 200 mg three times daily (tid) for seven days. On the last day, only the morning and the midday doses were administered. Blood samples for plasma VCD levels were collected at 0, 0.25, 0.5, 1, 1.5, 2, 3, 4, 5, 6, 8, 10, 12 and 24 hours after the first and the last morning dose. Additional samples were taken at times 0, 0.5, 1, and 2 hours after the morning dose on the last treatment day.
as §1
as §2, with “Following repeated dosing, CL/F was calculated from the quotient of the dose (200 mg) and the AUC obtained during one dosing interval (defined as one-half of the AUC calculated over two consecutive dosing intervals). Comparison of the pharmacokinetic parameters of all four VCD stereoisomers was made by ANOVA.” left out

[3] = Pharmacokinetics of VCD stereoisomers in plasma after repeated oral dosing of racemic valnoctamide to epileptic patients; settings: repeated oral racemic VCD 200 mg tid, last day
Method: as §3, §1
as §2, with “Following repeated dosing, CL/F was calculated from the quotient of the dose (200 mg) and the AUC obtained during one dosing interval (defined as one-half of the AUC calculated over two consecutive dosing intervals). Comparison of the pharmacokinetic parameters of all four VCD stereoisomers was made by ANOVA.” left out

[4] = Mean ± SD of seven healthy subjects, single oral 400 mg racemic VCD
[5] = individual healthy subjects, single oral 400 mg racemic VCD
[6] = individual healthy subjects, single oral 400 mg racemic VCD (Nirvanil), stereoisomer in plasma
[7] = Mean ± SD of six epileptic patients
[8] = individual epileptic patients on carbamazepine
[9] = individual epileptic patients, last dosing interval

| Structure (SMILES) | CL/F [1, 4] [L/h] | Cmax [1, 4] [mg/L] | MRT [1, 4] [h] | tmax [1, 4] [h] | t½ [1, 4] [h] | CL/F [1, 5] | Cmax [1, 5] | MRT [1, 5] | tmax [1, 5] | t½ [1, 6] | CL/F [2, 7] [L/h] | Cmax [2, 7] [mg/L] | MRT [2, 7] [h] | tmax [2, 7] [h] | t½ [2, 7] [h] | half lives [2] | CL/F [2, 8] | Cmax [2, 8] | MRT [2, 8] | tmax [2, 8] | further results |
| --- | --- | --- | --- | --- | --- | --- | --- | --- | --- | --- | --- | --- | --- | --- | --- | --- | --- | --- | --- | --- | --- |
| CCC(C)C(CC)C(N)=O (single isomer, unassigned; stereoisomer a) [Stereoisomer A] | 4.2 ± 0.6 | 1.7 ± 0.2 | 15 ± 3 | 0.7 ± 0.3 | 10.2 ± 2.1 | 3.6 L/h and 4.5 L/h and 4.1 L/h and 3.7 L/h and 4.6 L/h and 4.2 L/h and 3.5 L/h | 2.0 mg/L and 1.5 mg/L (2×) and 1.8 mg/L (3×) and 1.7 mg/L | 13 h (2×) and 20 h and 12 h (2×) and 15 h and 18 h | 1 h (3×) and 0.5 h (4×) | 8.8 h and 13.6 h and 8.1 h and 10.7 h and 9.5 h and 8.5 h and 12.5 h | 32 ± 7 | 0.78 ± 0.10 | 5.4 ± 1.5 | 0.8 ± 0.5 | 4.1 ± 2.1 | about 3 h | 40 L/h and 27 L/h and 35 L/h (2×) and 32 L/h and 20 L/h | 0.71 mg/L (2×) and 0.94 mg/L and 0.82 mg/L and 0.88 mg/L and 0.67 mg/L | 4.4 h and 5.1 h (2×) and 4.3 h and 5.3 h and 8.3 h | 1.5 h (2×) and 0.5 h (4×) | t½ ([1]; Mean ± SD of seven healthy subjects, single oral 400 mg racemic VCD, listed as A): approximately 10 h; t½ [2, 8]: 2.8 h and 3.6 h (2×) and 2.5 h and 8.3 h and 3.8 h; CL/F [3, 7]: 21 ± 4 L/h; Cmax [3, 7]: 0.9 ± 0.2 mg/L; tmax [3, 7]: 1.5 ± 0.3 h; t½ [3, 7]: 2.8 ± 0.7 h; CL/F ([3]; individual epileptic patients): 23 L/h and 19 L/h (3×) and 20 L/h and 29 L/h; Cmax ([3]; individual epileptic patients): 0.9 mg/L and 1.1 mg/L and 0.72 mg/L and 0.86 mg/L and 0.8 mg/L and 1.2 mg/L; tmax ([3]; individual epileptic patients): 2.0 h and 1.5 h (3×) and 1.0 h and 1.75 h; t½ [3, 9]: 2.2 h and 2.7 h and 3.8 h (2×) and 2.4 h and 4.8 h |
| CCC(C)C(CC)C(N)=O (single isomer, unassigned; stereoisomer d) [Stereoisomer D] | 4.6 ± 0.7 | 1.5 ± 0.2 | 15 ± 3 | 0.7 ± 0.3 | 10 ± 2 | 4.3 L/h and 5.6 L/h and 4.8 L/h and 3.8 L/h and 5.4 L/h and 4.7 L/h and 4.1 L/h | 1.5 mg/L (3×) and 1.3 mg/L and 1.6 mg/L and 1.4 mg/L and 1.8 mg/L | 13 h (2×) and 18 h (2×) and 12 h (2×) and 19 h | 1 h (3×) and 0.5 h (4×) | 8.7 h and 12.9 h and 8.0 h and 13.0 h and 9.5 h and 7.9 h and 13 h | 46 ± 11 | 0.61 ± 0.11 | 4.7 ± 1.0 | 0.83 ± 0.51 | 3.3 ± 1.1 | about 3 h | 60 L/h and 35 L/h and 45 L/h and 42 L/h (2×) and 30 L/h | 0.51 mg/L (3×) and 0.72 mg/L (2×) and 0.69 mg/L | 3.3 h and 5.2 h and 4.5 h and 5.6 h and 5.4 h and 5.3 h | 1.5 h (2×) and 0.5 h (4×) | t½ ([1]; Mean ± SD of seven healthy subjects, single oral 400 mg racemic VCD, listed as D): approximately 10 h; t½ [2, 8]: 1.2 h and 3.8 h (3×) and 2.7 h and 3.9 h; CL/F [3, 7]: 29 ± 6 L/h; Cmax [3, 7]: 0.6 ± 0.1 mg/L; tmax [3, 7]: 1.4 ± 0.3 h; t½ [3, 7]: 3.2 ± 1.4 h; CL/F ([3]; individual epileptic patients): 36 L/h and 25 L/h (3×) and 38 L/h and 24 L/h; Cmax ([3]; individual epileptic patients): 0.7 mg/L and 0.8 mg/L and 0.6 mg/L (3×) and 0.5 mg/L; tmax ([3]; individual epileptic patients): 2.0 h and 1.5 h (3×) and 1.0 h and 1.25 h; t½ [3, 9]: 2.1 h and 2.8 h and 5.2 h and 2.5 h and 5.3 h and 4.6 h |
| CCC(C)C(CC)C(N)=O (single isomer, unassigned; stereoisomer c) [Stereoisomer C] | 4.3 ± 0.4 | 1.6 ± 0.2 | 15 ± 3 | 0.7 ± 0.3 | 10.3 ± 1.9 | 4.0 L/h and 5.1 L/h and 4.3 L/h and 4.1 L/h (2×) and 4.6 L/h and 3.9 L/h | 1.8 mg/L (2×) and 1.4 mg/L and 1.7 mg/L (2×) and 1.6 mg/L and 1.5 mg/L | 12 h (2×) and 18 h (2×) and 14 h and 16 h and 13 h | 1 h (3×) and 0.5 h (4×) | 8.4 h and 13 h and 8.0 h and 10 h and 11.1 h and 9.2 h and 12.4 h | 39 ± 8 | 0.7 ± 0.12 | 4.8 ± 0.4 | 0.83 ± 0.5 | 3.3 ± 0.5 | about 3 h | 50 L/h and 31 L/h and 44 L/h and 38 L/h and 28 L/h and 41 L/h | 0.55 mg/L and 0.82 mg/L and 0.56 mg/L and 0.76 mg/L and 0.8 mg/L and 0.7 mg/L | 4.4 h and 4.8 h (2×) and 4.2 h and 5.4 h and 5.0 h | 1.5 h (2×) and 0.5 h (4×) | t½ ([1]; Mean ± SD of seven healthy subjects, single oral 400 mg racemic VCD, listed as C): approximately 10 h; t½ [2, 8]: 2.8 h and 3.4 h and 2.6 h and 3.7 h (2×) and 3.5 h; CL/F [3, 7]: 27 ± 5 L/h; Cmax [3, 7]: 0.8 ± 0.2 mg/L; tmax [3, 7]: 1.4 ± 0.3 h; t½ [3, 7]: 2.9 ± 0.9 h; CL/F ([3]; individual epileptic patients): 26 L/h and 23 L/h (2×) and 24 L/h and 36 L/h and 28 L/h; Cmax ([3]; individual epileptic patients): 0.81 mg/L and 0.9 mg/L and 0.62 mg/L and 0.7 mg/L and 0.6 mg/L and 1.0 mg/L; tmax ([3]; individual epileptic patients): 2.0 h and 1.5 h (3×) and 1.0 h and 1.25 h; t½ [3, 9]: 2.2 h and 3.0 h and 4.1 h (2×) and 2.3 h and 5.0 h |
